Literature values as cited in US20060240101A1, “Orally disintegrating pharmaceutical tablet formulations of olanzapine” (priority 2005, published 2006).

Details: for water solubility: at 20° C.

water solubility | SMILES | solubility in water (2005 Physician Desk Reference label information for Zyprexa)
approximately 250 g/l | OC[C@@H](O)[C@@H](O)[C@H](O)[C@H](O)CO [Pearlitol® 50C, mannitol] | 
approximately 170 g/l | OC[C@@H](O)[C@@H](O)[C@H](O)[C@H](O)CO [Pearlitol® 200 SD, mannitol] | 
 | Cc1cc2c(s1)Nc1ccccc1N=C2N1CCN(C)CC1 [olanzapine, 2-methyl-4-(4-methyl-1-piperanzinyl)-10H-thieno[2,3-b][1,5] benzodiazepine] | insoluble in water
